Data taken from patent US12371428B2 (Exelixis, Inc., priority 2019, dated 2025).

Columns and labels:
[1] = biological target: Human MER (residues 528-999) (Homo sapiens (Human), UniProt Q12866); experiment: Human Mer kinase assay, HTRF KinEase (Example C-2); assay type: biochemical; settings: protocol of Example C-2
Summary of the method: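 IC50 values from 10 concentrations via 4-parameter logistic fit of […], with DMSO as 100% and 1 μM reference compound as 0% activity. Reaction: MER kinase domain 528-999, 1 ng/well, 40 μM ATP (Km), biotin peptide, 5 mM MgCl2, 1 mM DTT, 3% DMSO, room temperature 60 min; HTRF streptavidin-XL665/Eu-antibody detection.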

[2] = biological target: Met (phospho-Met, HGF-stimulated PC-3 prostate cancer cells) (Homo sapiens (Human), UniProt P08581); experiment: Met autophosphorylation ELISA in PC-3 cells (Example F); assay type: cell-based; settings: cellular activity; Met autophosphorylation ELISA in PC-3 cells; read-out: c-Met IC50
Sequence of Met (phospho-Met, HGF-stimulated PC-3 prostate cancer cells) (P08581 25-1390): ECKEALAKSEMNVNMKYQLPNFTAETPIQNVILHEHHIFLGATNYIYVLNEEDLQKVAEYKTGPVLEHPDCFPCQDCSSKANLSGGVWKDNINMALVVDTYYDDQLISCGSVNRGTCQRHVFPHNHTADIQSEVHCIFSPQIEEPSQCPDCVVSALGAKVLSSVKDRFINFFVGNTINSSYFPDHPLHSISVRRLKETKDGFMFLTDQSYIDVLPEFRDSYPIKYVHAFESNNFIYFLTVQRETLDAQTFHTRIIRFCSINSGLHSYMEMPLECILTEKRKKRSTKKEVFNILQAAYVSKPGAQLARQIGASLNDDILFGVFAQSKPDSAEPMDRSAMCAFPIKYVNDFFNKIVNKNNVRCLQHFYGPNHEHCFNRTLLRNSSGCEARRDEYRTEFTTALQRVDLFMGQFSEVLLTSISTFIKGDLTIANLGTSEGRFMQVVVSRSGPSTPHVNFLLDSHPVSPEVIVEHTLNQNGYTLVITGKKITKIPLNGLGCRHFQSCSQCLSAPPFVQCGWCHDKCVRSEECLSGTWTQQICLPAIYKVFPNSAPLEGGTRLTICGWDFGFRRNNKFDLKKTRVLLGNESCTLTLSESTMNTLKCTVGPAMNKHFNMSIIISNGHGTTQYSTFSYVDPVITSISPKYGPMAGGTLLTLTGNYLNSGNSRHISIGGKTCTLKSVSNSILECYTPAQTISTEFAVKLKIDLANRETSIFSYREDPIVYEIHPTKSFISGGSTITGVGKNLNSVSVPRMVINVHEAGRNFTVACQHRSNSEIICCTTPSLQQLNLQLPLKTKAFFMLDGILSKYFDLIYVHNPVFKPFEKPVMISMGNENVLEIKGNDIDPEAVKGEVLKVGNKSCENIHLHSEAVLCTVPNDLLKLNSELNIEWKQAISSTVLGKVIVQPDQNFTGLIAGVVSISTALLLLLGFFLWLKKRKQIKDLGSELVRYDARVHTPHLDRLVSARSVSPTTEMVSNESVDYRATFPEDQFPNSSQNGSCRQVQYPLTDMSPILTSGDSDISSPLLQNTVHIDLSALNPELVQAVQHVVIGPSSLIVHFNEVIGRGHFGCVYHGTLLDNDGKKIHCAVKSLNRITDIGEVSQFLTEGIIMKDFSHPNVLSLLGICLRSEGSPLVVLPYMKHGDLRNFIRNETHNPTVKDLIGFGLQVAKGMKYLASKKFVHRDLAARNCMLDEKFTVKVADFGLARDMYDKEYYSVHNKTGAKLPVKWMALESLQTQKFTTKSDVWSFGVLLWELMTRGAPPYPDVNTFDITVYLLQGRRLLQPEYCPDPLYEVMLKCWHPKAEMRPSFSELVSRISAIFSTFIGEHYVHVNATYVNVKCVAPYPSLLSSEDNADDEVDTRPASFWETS
Summary of the method: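 Sandwich ELISA for phospho-Met (panTyr) in PC-3 lysates. Cells starved 3 h serum-free, compound 1 h (8-pt curve, 0.3% DMSO), HGF 100 ng/mL 10 min. 100% = HGF + DMSO; 0% = HGF + reference inhibitor. IC50 by 4-parameter fit.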

[3] = biological target: Human KDR (residues 790-1356) (Homo sapiens (Human), UniProt P35968); experiment: Human KDR kinase assay, HTRF KinEase (Example B-2); assay type: biochemical; settings: protocol of Example B-2
Sequence of Human KDR (residues 790-1356) (P35968 790-1356): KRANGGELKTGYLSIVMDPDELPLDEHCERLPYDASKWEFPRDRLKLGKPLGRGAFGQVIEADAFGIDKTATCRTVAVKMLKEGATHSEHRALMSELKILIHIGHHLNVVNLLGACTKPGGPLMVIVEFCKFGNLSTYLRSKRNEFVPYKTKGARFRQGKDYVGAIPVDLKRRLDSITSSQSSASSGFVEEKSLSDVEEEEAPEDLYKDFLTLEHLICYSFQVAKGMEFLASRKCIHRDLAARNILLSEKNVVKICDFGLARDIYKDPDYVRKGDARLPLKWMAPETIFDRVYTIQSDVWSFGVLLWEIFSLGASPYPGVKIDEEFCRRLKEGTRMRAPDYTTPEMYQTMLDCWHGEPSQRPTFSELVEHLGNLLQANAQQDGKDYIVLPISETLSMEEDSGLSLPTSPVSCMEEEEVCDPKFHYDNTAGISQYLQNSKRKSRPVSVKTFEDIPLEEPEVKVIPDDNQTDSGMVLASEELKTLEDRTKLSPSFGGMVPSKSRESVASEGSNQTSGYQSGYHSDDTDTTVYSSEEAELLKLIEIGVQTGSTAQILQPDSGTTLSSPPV
Summary of the method: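 Ten compound concentrations (3% DMSO final) were pre-plated, then KDR (790-1356) with biotinylated peptide in Mg/Mn/DTT buffer was added; ATP at Km (4.0 μM) started a 40 min room-temperature reaction. Detection used Eu-TK antibody and SA-XL665 in EDTA buffer; activity normalized to DMSO and reference inhibitor, IC50 by logistic fit.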

Sequence of Human MER (residues 528-999) (Q12866 528-999): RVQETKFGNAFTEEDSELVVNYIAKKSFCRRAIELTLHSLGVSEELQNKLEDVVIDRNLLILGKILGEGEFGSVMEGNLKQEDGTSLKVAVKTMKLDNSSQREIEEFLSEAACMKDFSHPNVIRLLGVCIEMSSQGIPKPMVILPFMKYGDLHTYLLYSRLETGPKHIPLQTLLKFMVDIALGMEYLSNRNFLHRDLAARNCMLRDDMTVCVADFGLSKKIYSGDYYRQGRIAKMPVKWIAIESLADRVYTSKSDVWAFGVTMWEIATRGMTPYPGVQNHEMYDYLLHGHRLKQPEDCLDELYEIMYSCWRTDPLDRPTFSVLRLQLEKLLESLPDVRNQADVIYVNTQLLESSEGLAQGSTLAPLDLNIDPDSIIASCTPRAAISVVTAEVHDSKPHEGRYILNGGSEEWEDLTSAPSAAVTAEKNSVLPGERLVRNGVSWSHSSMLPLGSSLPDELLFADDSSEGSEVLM

Row | SMILES | IC50 [1] | IC50 [2] | IC50 [3]
1 | COc1cc2nccc(Oc3ccc(NC(=O)c4cn(C)cc(-c5ccc(F)cc5C)c4=O)cc3F)c2nc1OC [Compound 503, N-[4-[(6,7-dimethoxy-1,5-naphthyridin-4-yl)oxy]-3-fluorophenyl]-5-(4-fluoro-2-methylphenyl)-1-methyl-4-oxopyridine-3-carboxamide] | < 100 nM | < 100 nM | < 100 nM
2 | COc1cc2nccc(Oc3cc(F)c(NC(=O)c4cnc(C)c(-c5ccc(F)cc5)c4O)cc3F)c2nc1C [Compound 542, N-[2,5-difluoro-4-[(7-methoxy-6-methyl-1,5-naphthyridin-4-yl)oxy]phenyl]-5-(4-fluorophenyl)-4-hydroxy-6-methylpyridine-3-carboxamide] | < 100 nM | < 100 nM | 100 to 300 nM
3 | COc1ccc2nccc(Oc3ccc(NC(=O)c4cn(C)c(CF)c(-c5ccc(F)cc5)c4=O)cc3F)c2n1 [Compound 561, N-[3-Fluoro-4-[(6-methoxy-1,5-naphthyridin-4-yl)oxy]phenyl]-6-(fluoromethyl)-5-(4-fluorophenyl)-1-methyl-4-oxopyridine-3-carboxamide] | < 100 nM | < 100 nM | > 300 nM

Second part, the compound after the results:

Row | IC50 [1] | IC50 [2] | IC50 [3] | SMILES
4 | < 100 nM | < 100 nM | < 100 nM | COc1cc2nccc(Oc3ccc(NC(=O)c4cnc(C)c(-c5ccc(F)cc5)c4O)cc3F)c2nc1C [Compound 541, N-[3-fluoro-4-[(7-methoxy-6-methyl-1,5-naphthyridin-4-yl)oxy]phenyl]-5-(4-fluorophenyl)-4-hydroxy-6-methylpyridine-3-carboxamide]
5 | < 100 nM | < 100 nM | > 300 nM | Cc1ccc2nccc(Oc3ccc(NC(=O)c4c(C)nc(C)c(-c5ccc(F)cc5C)c4O)cc3F)c2n1 [Compound 506, N-[3-fluoro-4-[(6-methyl-1,5-naphthyridin-4-yl)oxy]phenyl]-5-(4-fluoro-2-methylphenyl)-4-hydroxy-2,6-dimethylpyridine-3-carboxamide]
6 | 100 to 300 nM | < 100 nM | > 300 nM | COc1cnc2c(Oc3ccc(NC(=O)c4ccnn(-c5ccc(F)cc5C)c4=O)cc3)ccnc2c1 [Compound 530, 2-(4-fluoro-2-methylphenyl)-N-[4-[(7-methoxy-1,5-naphthyridin-4-yl)oxy]phenyl]-3-oxopyridazine-4-carboxamide]
7 | < 100 nM | < 100 nM | < 100 nM | COc1cc2nccc(Oc3ccc(NC(=O)c4nn(C)c(C)c(-c5ccc(F)cc5C)c4=O)cc3)c2nc1OC [Compound 517, N-[4-[(6,7-dimethoxy-1,5-naphthyridin-4-yl)oxy]phenyl]-5-(4-fluoro-2-methylphenyl)-1,6-dimethyl-4-oxopyridazine-3-carboxamide]
8 | < 100 nM | < 100 nM | 100 to 300 nM | C=C(C)c1cnc2c(Oc3ccc(NC(=O)c4cnc(C)c(-c5ccc(F)cc5C)c4O)cc3F)ccnc2c1 [Compound 450, 5-(4-fluoro-2-methylphenyl)-N-[3-fluoro-4-[(7-prop-1-en-2-yl-1,5-naphthyridin-4-yl)oxy]phenyl]-4-hydroxy-6-methylpyridine-3-carboxamide]
